Reference: US7759350B2, “Pyrimidine carboxamides” (Orchid Research Laboratories Ltd., priority 2005, dated 2010)

Tests used:
[1] = test system: TNF-α; assay: In vitro measurement of TNF-α in human PBMC; assay type: cell-based; details: LPS; for IC50: TNF-α inhibition
Method: In Vitro Measurement of Tumor Necrosis Factor Alpha (TNF-α)
This assay determines the effect of test compounds on the production of TNF-α in human Peripheral Blood Mononuclear Cells (PBMC). Compounds were tested for their ability to inhibit the activity of TNF-α in human PBMC. PBMC were isolated from blood (from healthy volunteers) using BD Vacutainer CPT™ (Cell preparation tube, BD Bio Science) and suspended in RPMI medium (Physiol. Res. 52; 593-598, 2003). The test compounds were pre-incubated with PBMC (0.5 million/incubation well) for 15 minutes at 37° C. and then stimulated with Lipopolysaccharide (Escherichia coli: B4; 1 μg/ml) for 18 hours at 37° C. in 5% CO2. The levels of TNF-α in the cell culture medium were estimated using enzyme linked Immunosorbent assay performed in a 96 well format as per the procedure of the manufacturer (R&D Systems, Inc. 614 McKinley Place Nebr., Minneapolis, Minn. 55413, USA).

[2] = biological target: T1, purified recombinant COX-2 enzyme (Homo sapiens, UniProt P35354); assay: COX-2 enzyme based assay; assay type: biochemical; details: Conc. 10 μM
T1 sequence (P35354 18-604): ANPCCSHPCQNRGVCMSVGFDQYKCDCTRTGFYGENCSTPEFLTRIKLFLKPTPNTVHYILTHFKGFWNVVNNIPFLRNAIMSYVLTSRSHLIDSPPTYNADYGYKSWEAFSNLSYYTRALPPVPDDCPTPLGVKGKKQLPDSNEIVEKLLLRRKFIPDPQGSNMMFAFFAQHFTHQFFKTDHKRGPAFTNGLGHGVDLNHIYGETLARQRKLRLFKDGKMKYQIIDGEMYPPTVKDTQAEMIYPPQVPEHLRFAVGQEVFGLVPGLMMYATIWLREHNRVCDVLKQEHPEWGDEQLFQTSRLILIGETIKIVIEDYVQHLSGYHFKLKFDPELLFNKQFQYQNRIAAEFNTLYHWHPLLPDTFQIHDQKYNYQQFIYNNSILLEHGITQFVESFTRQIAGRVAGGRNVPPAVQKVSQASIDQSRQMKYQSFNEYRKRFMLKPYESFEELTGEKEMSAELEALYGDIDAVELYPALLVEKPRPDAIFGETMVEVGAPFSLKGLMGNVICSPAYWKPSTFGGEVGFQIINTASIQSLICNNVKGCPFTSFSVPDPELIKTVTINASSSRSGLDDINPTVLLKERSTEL
Method: (§1) COX-1 and COX-2 Enzyme Based Assay
(§2) COX-2 enzyme based assays were carried out to check the inhibitory potential of test compounds on the production of prostaglandin by purified recombinant COX-1/COX-2 enzyme (Proc. Nat. Acad. Sci. USA, 88, 2692-2696, 1991; Clin. Immunoassay 15, 116-120, 1992) In this assay, the potential of the test compound to inhibit the production of prostaglandin either by COX-1 or COX-2 from arachidonic acid (substrate) was measured. This was an enzyme based in-vitro assay to evaluate selective COX inhibition with good reproducibility.
(§3) Arachidonic acid was converted to PGH2 (Intermediate product) by COX1/COX-2 in presence or absence of the test compound. The reaction was carried out at 37° C. and after 2 minutes it was stopped by adding 1M HCl. Intermediate products PGH2 was converted to a stable Prostanoid product PGF2α by SnCl2 reduction. The amount of PGF2α produced in the reaction was inversely proportional to the COX inhibitory potential of the test compound. The prostanoid product was quantified via enzyme immunoassay (EIA) using a broadly specific antibody that binds to all the major forms of Prostaglandin, using Cayman ELISA kit as per the procedure outlined by the manufacturer Cayman Chemicals, Ann Arbor, USA).

[3] = biological target: purified recombinant COX-1 enzyme (Homo sapiens, UniProt P23219); assay: COX-1 enzyme based assay; assay type: biochemical; details: Conc. 10 μM
Chain of purified recombinant COX-1 enzyme (P23219 24-599): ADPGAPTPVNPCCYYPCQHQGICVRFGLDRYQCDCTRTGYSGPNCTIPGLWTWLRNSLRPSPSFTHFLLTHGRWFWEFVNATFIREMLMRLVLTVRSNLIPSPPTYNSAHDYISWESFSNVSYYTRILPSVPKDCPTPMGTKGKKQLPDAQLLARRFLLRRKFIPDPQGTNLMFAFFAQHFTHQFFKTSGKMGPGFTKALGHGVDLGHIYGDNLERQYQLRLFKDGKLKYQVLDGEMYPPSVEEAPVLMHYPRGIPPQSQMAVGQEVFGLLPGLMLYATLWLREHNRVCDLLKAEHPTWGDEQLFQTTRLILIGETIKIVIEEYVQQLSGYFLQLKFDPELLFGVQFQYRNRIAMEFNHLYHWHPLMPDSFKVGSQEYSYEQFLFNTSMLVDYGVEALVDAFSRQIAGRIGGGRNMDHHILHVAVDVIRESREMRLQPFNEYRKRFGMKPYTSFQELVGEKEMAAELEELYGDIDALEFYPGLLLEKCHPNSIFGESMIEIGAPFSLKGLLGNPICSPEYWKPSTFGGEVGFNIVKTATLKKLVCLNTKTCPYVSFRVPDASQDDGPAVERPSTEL
Method: as §1, §2, §3

[4] = test system: TNF-α; assay: LPS induced sepsis for measurement of TNF-α inhibition in mice; assay type: in vivo; details: 50 mg/kg bw oral; female Swiss albino mice; serum 90 minutes after LPS
Method: LPS Induced Sepsis for Measurement of TNF-α Inhibition in Mice
The LPS induced sepsis model in mice was performed as described by Les sekut et al (J Lab Clin Med 1994; 124:813-20). Female Swiss albino mice were selected with their body weights being equivalent within each group. The mice were fasted for 20 hours with free access to water. The mice were dosed orally with the test compound suspended in vehicle containing 0.5% Tween 80 in 0.25% Carboxy-methylcellulose sodium salt. The control mice were administered the vehicle alone. After 30 minutes of oral dosing, the mice were injected with 500 μg of Lipopolysaccharide (Escherichia coli, LPS: B4 from Sigma) in phosphate buffer saline solution into the intraperitoneal cavity of the mice. After 90 minutes of LPS administration, the mice were bled via retro-orbital sinus puncture. Blood samples were stored overnight at 4° C. Serum samples were collected by centrifuging the samples at 4000 rpm for 15 minutes at 4° C. Immediately the serum samples were analysed for TNF-α levels, using commercially available mouse TNF-α ELISA kit (Amersham Biosciences) and assay was performed by the manufacturer instruction.

[5] = biological target: T2, COX-2 (Homo sapiens, UniProt P35354); assay: Human whole blood assay, COX-2 inhibition (PGE2 after LPS); assay type: cell-based; details: LPS stimulated; for inhibition at 0.25 µM: Conc. 0.25 μM
T2 construct: Fresh blood was collected in tubes containing sodium heparin by vein puncture from healthy male volunteers; endogenous in cells; host or cells: human whole blood from healthy male volunteers, stimulated with LPS
T2 sequence (P35354 18-604): T1 sequence (P35354 18-604)
Method: Human whole blood provides a protein and cell rich milieu appropriate for the study of biochemical efficacy of anti-inflammatory compounds such as selective COX-2 inhibitors. […] This is correlating with the observation that COX-2 inhibitors have no effect on prostaglandin E2 (PGE2) production in normal blood. These inhibitors were active only after incubation of human blood with lipopolysaccharide (LPS), which induces COX-2 production in the blood.
Fresh blood was collected in tubes containing sodium heparin by vein puncture from healthy male volunteers. […] Then test compounds (at various concentrations) or vehicle were added to blood. After that blood was stimulated with LPS B: 4 (10 μg/ml) and incubated for another 18 hours at 37° C. water bath. After which the blood was centrifuged, plasma was separated and stored at −80° C. (J. Pharmacol. Exp. Ther, 271, 1705, 1994; Proc. Natl. Acad. Sci. USA., 96, 7563, 1999). The plasma was assayed for PGE2 using Cayman ELISA kit as per the procedure outlined by the manufacturer (Cayman Chemicals, Ann Arbor, USA).

[6] = test system: MCF-7; assay: Anti-cancer screen (MTT), MCF-7; assay type: cell-based; details: Conc. 100 μM
Method: [The source words this procedure for another cell line and reports this cell line under the same test.] (§4) Experimental drugs are screened for anti-cancer activity in three cell lines for their GI50, TGI and LC50 values (using five concentrations for each compound). The cell lines are maintained in DMEM containing 10% fetal bovine serum. 96 well microtiter plates are inoculated with cells in 100 μL for 24 h at 37° C., 5% CO2, 95% air and 100% relative humidity. 5000 HCT116 cells/well, 5000 NCIH460 cells/well, 10000 U251 cells/well and 5000 MDAMB231 cells/well are plated. A separate plate with these cell lines is also inoculated to determine cell viability before the addition of the compounds (T0).
(§5) Following 24 hours incubation, experimental drugs are added to the 96 well plates. Each plate contains one of the above cell lines and the following in triplicate: five different concentrations (0.01, 0.1, 1, 10 and 100 μM) of four different compounds, appropriate dilutions of a cytotoxic standard and control (untreated) wells. Compounds are dissolved in dimethylsulfoxide (DMSO) to make 20 mM stock solutions on the day of drug addition and frozen at −20° C. Serial dilutions of these 20 mM stock solutions are made in complete growth medium such that 100 μL of these drug solutions in medium, of final concentrations equaling 0.01, 0.1, 1, 10 and 100 μM can be added to the cells in triplicate. Standard drugs whose anti-cancer activity has been well documented and which are regularly used are doxorubicin and SAHA.
(§6) Cells are incubated with compounds for 48 hours followed by the addition of 10 μL 3-(4,5-Dimethyl-2-thiazolyl)-2,5-diphenyl-2H-tetrazolium (MTT) solution per well and a subsequent incubation at 37° C., 5% CO2, 95% air and 100% relative humidity, protected from light. After 4 hours, well contents are aspirated carefully followed by addition of 150 μL DMSO per well. Plates are agitated to ensure solution of the formazan crystals in dimethylsulphoxide and absorbance read at 570 nm.
(§7) Percent growth is calculated for each compound's concentration relative to the control and zero measurement wells (To; viability right before compound addition). […]

[7] = test system: NCI-H460; assay: Anti-cancer screen (MTT), NCI-H460; assay type: cell-based
Method: as §4
Following 24 hours incubation, experimental drugs are added to the 96 well plates. […] Compounds are dissolved in dimethylsulfoxide (DMSO) to make 20 mM stock solutions on the day of drug addition and frozen at −20° C. […] Standard drugs whose anti-cancer activity has been well documented and which are regularly used are doxorubicin and SAHA.
as §6
Percent growth is calculated for each compound's concentration relative to the control and zero measurement wells (To; viability right before compound addition). If a test well's O.D. value is greater than the To measurement for that cell line % Growth=(test−zero)/(control−zero)×100
If a test well's O.D. value is lower than the T0 measurement for that cell line, […]

[8] = test system: SF-268; assay: Anti-cancer screen (MTT), SF-268; assay type: cell-based; details: Conc. 100 μM
Method: [The source words this procedure for another cell line and reports this cell line under the same test.] as §4, §5, §6, §7

[9] = test system: IL-1β; assay: In vitro measurement of IL-1β in human PBMC; assay type: cell-based; details: Conc. 0.1 μM, LPS
Method: (§8) In vitro Measurement of Interleukin-6 (IL-6) & Interleukin-1β (IL1β)
(§9) This assay determines the effect of test compounds on the production of IL-6 and IL1β in human PBMC (Physiol. Res. 52: 593-598, 2003). Compounds were tested for their ability to inhibit the activity of IL-6 and IL1β in human PBMC. PBMC were isolated from blood using BD Vacutainer CPT™ Cell preparation tube (BD Bio Science) and suspended in RPMI medium. The test compounds were preincubated with PBMC (0.5 million/incubation well) for 15 minutes at 37° C. and then stimulated with Lipopolysaccharide (Escherichia coli: B4; 1 μg/ml) for 18 hours at 37° C. in 5% CO2. The levels of IL-6 and IL1β in cell culture medium were estimated using enzyme linked Immunosorbent assay performed in a 96 well format as per the procedure of the manufacturer (R&D Systems, Inc. 614 McKinley Place Nebr., Minneapolis, Minn. 55413, USA).

[10] = test system: IL-6; assay: In vitro measurement of IL-6 in human PBMC; assay type: cell-based; details: Conc. 0.1 μM, LPS
Method: as §8, §9

Row | Structure (SMILES) | IC50 [1] [nM] | inhibition at 10 µM [2] [%] | inhibition at 10 µM [3] [%] | TNF-α Inhibition (%) at 50 mg/kg bw [4] [%] | inhibition at 1 µM [1] [%] | other results
1 | CNc1nc(-c2cccnc2)nc(SC)c1C(=O)Nc1ccc(OC)cc1 [Example 6, N-(4-Methoxyphenyl)-4-(methylamino)-6-(methylthio)-2-pyridin-3-ylpyrimidine-5-carboxamide] | 860 | 19.3 | 28.8 | 77.0 |  | melting point: 184 to 197 °C; inhibition at 0.1 µM [1]: 30.3%
2 | CNc1nc(-c2ccc(S(N)(=O)=O)cc2)nc(NC)c1C(=O)Nc1ccc(C)c(C)c1 [Example 10, 2-[4-(Aminosulfonyl)phenyl]-4,6-bis(methylamino)-N-(3,4-dimethylphenyl)pyrimidine-5-carboxamide] |  |  |  |  |  | inhibition at 10 µM ([5]; Conc. 10 μM): 24.2%
3 | CCc1ccc(NC(=O)c2c(NC)nc(-c3ccc(SC)cc3)nc2SC)cc1 [Example 8, N-(4-Ethylphenyl)-4-(methylamino)-6-(methylthio)-2-[4-(methylthio)phenyl]pyrimidine-5-carboxamide] |  |  |  |  |  | Percentage growth Breast MCF-7 [6]: 4%; Percentage growth Lung NCI-H460 ([7]; Conc. 100 μM): 0%; inhibition at 0.1 µM [1]: 27.8%; Percentage growth CNS SF-268 [8]: 1%
4 | CSc1nc(-c2ccncc2)nc(NCCO)c1C(=O)Nc1ccc(C)c(C)c1 [Example 37, N-(3,4-Dimethylphenyl)-4-[(2-hydroxyethyl)amino]-6-(methylthio)-2-pyridin-4-ylpyrimidine-5-carboxamide] | 1500 | 17.1 | 6.58 | 66.65 | 42.7 | 
5 | CNc1nc(-c2cccnc2)nc(NC)c1C(=O)Nc1ccc(OC)cc1 [Example 28, N-(4-Methoxyphenyl)-4,6-bis(methylamino)-2-pyridin-3-ylpyrimidine-5-carboxamide] | 900 | 23.2 | 25.5 | 81.5 | 45.1 | 
6 | CSc1nc(-c2ccncc2)nc(NCCO)c1C(=O)Nc1ccc(C)cc1 [Example 35, 4-[(2-Hydroxyethyl)amino]-N-(4-methylphenyl)-6-(methylthio)-2-pyridin-4-ylpyrimidine-5-carboxamide] | 1800 | 26.8 | 15.2 | 59.94 | 52.7 | GI50 ([7]; Homo sapiens, NCI-H460, 48 hours, MTT): 9000 nM
7 | CNc1nc(-c2ccc(S(N)(=O)=O)cc2)nc(SC)c1C(=O)Nc1ccc(C)cc1 [Example 12, 2-[4-(Aminosulfonyl)phenyl]-4-(methylamino)-N-(4-methylphenyl)-6-(methylthio)pyrimidine-5-carboxamide] |  |  |  |  |  | inhibition at 0.25 µM [5]: 24.9%
8 | CNc1nc(-c2ccc(S(N)(=O)=O)cc2)nc(NC)c1C(=O)Nc1ccc(C)cc1 [Example 13, 2-[4-(Aminosulfonyl)phenyl]-4,6-bis(methylamino)-N-(4-methylphenyl)pyrimidine-5-carboxamide] |  |  |  |  |  | IL-1β Inhibition (%) [9]: Not active; inhibition at 0.25 µM [5]: 24.5%; inhibition at 0.1 µM [10]: 21.5%
